Patent publication US20250127906A1, “SMALL-MOLECULE DEGRADERS OF CDK8 AND CDK19” (University of South Carolina, priority 2021, published 2025)

Legend:
SK-MM-2 cells = assay: SK-MM-2 multiple myeloma cell growth over 20 days continuous treatment; assay type: cell-based; conditions: BI1347 200 nM, Senexin C 1 μM, IA7886 200 nM, IA7843 1 μM
Description: The following CDK8/19 kinase inhibitors were tested for their effects on MM cell lines over 20 days continuous treatment: CDK8/19 kinase inhibitors BI1347 (200 nM) and Senexin C (1 μM), BI1347-derived PROTAC IA7886 (200 nM) and Senexin C-derived PROTAC IA7843 (1 μM). 1-4 million cells were treated with vehicle control (0.1% DMSO), or CDK8/19 kinase inhibitors or PROTACs for 20 days. Every 4 days, cells were counted using BioRAD TC20 Automated Cell Counter with trypan blue staining, and the same number of cells were passaged to a new T25 flask to propagate under the same treatment conditions.

CDK8 = CDK8 (Homo sapiens, UniProt P49336); assay: CDK8 degradation in HEK-293 cells (Western blot, normalized by GAPDH); assay type: cell-based; set-up: endogenous in cells; host or cells: HEK-293; conditions: for induction of CDK8 degradation by single agents: HP8580 200 nM and 1 μM, pomalidomide 5 μM, Senexin C 5 μM; for % CDK8 remaining: HEK-293 cells, 24 hours, tested at 1 μM
Sequence of CDK8 (P49336 whole entry): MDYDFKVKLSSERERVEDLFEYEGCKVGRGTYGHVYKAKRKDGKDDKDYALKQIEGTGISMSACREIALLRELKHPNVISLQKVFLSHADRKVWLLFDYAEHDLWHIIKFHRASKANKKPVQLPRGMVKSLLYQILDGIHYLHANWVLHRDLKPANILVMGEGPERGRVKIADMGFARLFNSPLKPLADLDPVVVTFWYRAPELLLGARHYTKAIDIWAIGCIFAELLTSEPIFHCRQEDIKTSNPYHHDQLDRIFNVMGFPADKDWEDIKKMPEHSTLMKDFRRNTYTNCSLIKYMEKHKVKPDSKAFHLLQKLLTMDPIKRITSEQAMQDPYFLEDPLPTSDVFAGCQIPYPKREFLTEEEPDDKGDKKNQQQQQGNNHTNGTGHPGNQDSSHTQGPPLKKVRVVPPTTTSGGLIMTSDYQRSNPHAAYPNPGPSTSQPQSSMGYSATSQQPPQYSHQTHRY
Sequence of CDK8 (P24863 whole entry partner): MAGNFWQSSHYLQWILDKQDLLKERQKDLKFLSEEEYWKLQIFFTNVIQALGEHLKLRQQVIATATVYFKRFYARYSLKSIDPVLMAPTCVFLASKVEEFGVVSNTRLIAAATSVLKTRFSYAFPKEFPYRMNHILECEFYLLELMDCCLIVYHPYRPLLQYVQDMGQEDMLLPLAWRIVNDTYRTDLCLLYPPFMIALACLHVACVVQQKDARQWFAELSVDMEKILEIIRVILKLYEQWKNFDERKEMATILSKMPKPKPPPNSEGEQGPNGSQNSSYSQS
Description: Table 1 presents the structures of 35 different chimeras that have been synthesized, together with their effects (at 1 μM or 0.3 μM concentrations) on CDK8 degradation in HEK-293 cells. The synthesis schemes of all the compounds are described below. CDK8 degradation was measured by Western blot analysis of RIPA lysates of HEK-293cells treated with or without the test compound for 24 hours, using antibodies against CDK8 (Santa Cruz sc-1521) and housekeeping protein GAPDH (Santa Cruz sc-32233) (loading control) Protein bands on immunoblotted PVDF membranes were visualized with Western Lighting Plus ECL detection reagent (Perkin Elmer, Waltham, MA, USA) using ChemiDoc Touch™ (Bio-Rad). Image processing and densitometry analysis were performed using ImageLab software (Bio-Rad) to quantify the CDK8 protein levels (normalized by GAPDH) and evaluate the effects of compound treatment.
FIGS. 2F and 2G show the effects of different concentrations of potent Senexin C- and BI-1347-based PROTACs on CDK8 and CDK19 degradation in HEK-293cells. Based on these assays, we calculated DC50 values that correspond to PROTAC concentrations inducing degradation of CDK8 and CDK19 to the half of protein level in untreated cells. The corresponding CDK8 DC50 values were 46 nM for IA7843, 6.6 nM for IA7882 and 2.8 nM for IA7886, and CDK19 DC50 values were 1 μM for IA7843, 25 nM for IA7882 and 10 nM for IA7886.

Structure (SMILES) | % CDK8 remaining (CDK8) | further results
CN1CCN(C(=O)c2ccc3cc(CCNc4ccnc5ccc(C#N)cc45)ccc3c2)CC1 [Senexin C, reference compound] |  | growth inhibition over 20 days, order of efficacy (SK-MM-2 cells): BI1347<IA7886<Senexin C<IA7843; induction of CDK8 degradation by single agents (CDK8; HEK-293): but not pomalidomide or Senexin C induced CDK8 degradation
Cc1ncsc1-c1ccc(CNC(=O)[C@@H]2C[C@@H](O)CN2C(=O)[C@@H](NC(=O)CCCCCCCCC(=O)N2CCN(C(=O)c3ccc4cc(CCNc5ccnc6ccc(C#N)cc56)ccc4c3)CC2)C(C)(C)C)cc1 (racemic) [IA7862, rac-(2S,4R)-4-hydroxy-N-[[4-(4-methylthiazol-5-yl)phenyl]methyl]-1-[rac-(2S)-2-[[10-[4-[6-[2-[(6-cyano-4-quinolyl)amino]ethyl]naphthalene-2-carbonyl]piperazin-1-yl]-10-oxo-decanoyl]amino]-3,3-dimethyl-butanoyl]pyrrolidine-2-carboxamide] | 69% | 
NC(=O)c1sc2nccc(N3CCCN(c4ccc(C(=O)N5CCN(C(=O)CCOCCOCCOCCOCCNc6cccc7c6C(=O)N(C6CCC(=O)NC6=O)C7=O)CC5)cc4)CC3)c2c1N (stereo not shown) [IA7892, 3-amino-4-[4-[4-[4-[3-[2-[2-[2-[2-[[2-(2,6-dioxo-3-piperidyl)-1,3-dioxo-isoindolin-4-yl]amino]ethoxy]ethoxy]ethoxy]ethoxy]propanoyl]piperazine-1-carbonyl]phenyl]-1,4-diazepan-1-yl]thieno[2,3-b]pyridine-2-carboxamide] | 41% | 
CN(CCCNC(=O)CCOCCOCCNc1cccc2c1C(=O)N(C1CCC(=O)NC1=O)C2=O)C(=O)c1ccc(N2CCCN(c3ccnc4sc(C(N)=O)c(N)c34)CC2)cc1 (stereo not shown) [HP8578, 3-amino-4-[4-[4-[3-[3-[2-[2-[[2-(2,6-dioxo-3-piperidyl)-1,3-dioxo-isoindolin-4-yl]amino]ethoxy]ethoxy]propanoylamino]propyl-methyl-carbamoyl]phenyl]-1,4-diazepan-1-yl]thieno[2,3-b]pyridine-2-carboxamide] | 82% | 
N#Cc1ccc2nccc(NCCc3ccc4cc(C(=O)N5CCN(C(=O)CCCCCCCCCCCNC(=O)CCNc6cccc7c6C(=O)N(C6CCC(=O)NC6=O)C7=O)CC5)ccc4c3)c2c1 (stereo not shown) [IA7848, N-[12-[4-[6-[2-[(6-cyano-4-quinolyl)amino]ethyl]naphthalene-2-carbonyl]piperazin-1-yl]-12-oxo-dodecyl]-3-[[2-(2,6-dioxo-3-piperidyl)-1,3-dioxo-isoindolin-4-yl]amino]propanamide] | 31% | 
N#Cc1ccc2nccc(NCCc3ccc4cc(C(=O)N5CCN(C(=O)CCCCCCCCC(=O)NCCCCCNc6cccc7c6C(=O)N(C6CCC(=O)NC6=O)C7=O)CC5)ccc4c3)c2c1 (stereo not shown) [IA7840, 10-[4-[6-[2-[(6-cyano-4-quinolyl)amino]ethyl]naphthalene-2-carbonyl]piperazin-1-yl]-N-[5-[[2-(2,6-dioxo-3-piperidyl)-1,3-dioxo-isoindolin-4-yl]amino]pentyl]-10-oxo-decanamide] | 55% | 
N#Cc1ccc2nccc(NCCc3ccc4cc(C(=O)N5CCN(C(=O)CCOCCOCCOCCOCCNc6cccc7c6C(=O)N(C6CCC(=O)NC6=O)C7=O)CC5)ccc4c3)c2c1 (stereo not shown) [HP8580, 4-[2-[6-[4-[3-[2-[2-[2-[2-[[2-(2,6-dioxo-3-piperidyl)-1,3-dioxo-isoindolin-4-yl]amino]ethoxy]ethoxy]ethoxy]ethoxy]propanoyl]piperazine-1-carbonyl]-2-naphthyl]ethylamino]quinoline-6-carbonitrile] | 20% | induction of CDK8 degradation by single agents (CDK8; HEK-293): induced CDK8 degradation; effect of co-treatment on HP8580-mediated CDK8 degradation (CDK8; HEK-293, with MG132 5 μM, pomalidomide 5 μM or Senexin C 5 μM): reversed by proteasome inhibition with MG132 as well as by competition with pomalidomide or Senexin C
N#Cc1ccc2nccc(NCCc3ccc4cc(C(=O)N5CCN(C(=O)CCCCCCCCCNC(=O)COc6ccc7c(c6)CCCN7C(=O)CCl)CC5)ccc4c3)c2c1 [IA7875, 2-[[1-(2-chloroacetyl)-3,4-dihydro-2H-quinolin-6-yl]oxy]-N-[10-[4-[6-[2-[(6-cyano-4-quinolyl)amino]ethyl]naphthalene-2-carbonyl]piperazin-1-yl]-10-oxo-decyl]acetamide] | 100% | 
N#Cc1ccc2nccc(NCCc3ccc4cc(C(=O)N5CCN(C(=O)CCOCCOCCOCCNc6cccc7c6C(=O)N(C6CCC(=O)NC6=O)C7=O)CC5)ccc4c3)c2c1 (stereo not shown) [HV5957, 4-[2-[6-[4-[3-[2-[2-[2-[[2-(2,6-dioxo-3-piperidyl)-1,3-dioxo-isoindolin-4-yl]amino]ethoxy]ethoxy]ethoxy]propanoyl]piperazine-1-carbonyl]-2-naphthyl]ethylamino]quinoline-6-carbonitrile] | 21% | 
N#Cc1ccc2nccc(NCCc3ccc4cc(C(=O)N5CCN(C(=O)CCCCCCCCCCNC(=O)CCCNc6ccc7c(c6)C(=O)N(C6CCC(=O)NC6=O)C7=O)CC5)ccc4c3)c2c1 (stereo not shown) [IA7868, N-[11-[4-[6-[2-[(6-cyano-4-quinolyl)amino]ethyl]naphthalene-2-carbonyl]piperazin-1-yl]-11-oxo-undecyl]-4-[[2-(2,6-dioxo-3-piperidyl)-1,3-dioxo-isoindolin-5-yl]amino]butanamide] | 39% | 
Nc1cccc2c1C(=O)N(C1CCC(=O)NC1=O)C2=O (stereo not shown) [pomalidomide, reference compound] |  | induction of CDK8 degradation by single agents (CDK8; HEK-293): but not pomalidomide or Senexin C induced CDK8 degradation
N#Cc1ccc2nccc(NCCc3ccc4cc(C(=O)N5CCN(C(=O)CCCCCCCCCNC(=O)CCCCNc6cccc7c6C(=O)N(C6CCC(=O)NC6=O)C7=O)CC5)ccc4c3)c2c1 (stereo not shown) [IA7861, N-[10-[4-[6-[2-[(6-cyano-4-quinolyl)amino]ethyl]naphthalene-2-carbonyl]piperazin-1-yl]-10-oxo-decyl]-5-[[2-(2,6-dioxo-3-piperidyl)-1,3-dioxo-isoindolin-4-yl]amino]pentanamide] | 19% | 
CN(CCCNC(=O)CCOCCOCCOCCOCCNc1cccc2c1C(=O)N(C1CCC(=O)NC1=O)C2=O)C(=O)c1ccc2cc(CCNc3ccnc4ccc(C#N)cc34)ccc2c1 (stereo not shown) [HP8581, 6-[2-[(6-cyano-4-quinolyl)amino]ethyl]-N-[3-[3-[2-[2-[2-[2-[[2-(2,6-dioxo-3-piperidyl)-1,3-dioxo-isoindolin-4-yl]amino]ethoxy]ethoxy]ethoxy]ethoxy]propanoylamino]propyl]-N-methyl-naphthalene-2-carboxamide] | 36% | 
CN(CCCNC(=O)CCOCCOCCOCCNc1cccc2c1C(=O)N(C1CCC(=O)NC1=O)C2=O)C(=O)c1ccc(N2CCCN(c3ccnc4sc(C(N)=O)c(N)c34)CC2)cc1 (stereo not shown) [HP8575, 3-amino-4-[4-[4-[3-[3-[2-[2-[2-[[2-(2,6-dioxo-3-piperidyl)-1,3-dioxo-isoindolin-4-yl]amino]ethoxy]ethoxy]ethoxy]propanoylamino]propyl-methyl-carbamoyl]phenyl]-1,4-diazepan-1-yl]thieno[2,3-b]pyridine-2-carboxamide] | 77% | 
N#Cc1ccc2nccc(NCCc3ccc4cc(C(=O)N5CCN(C(=O)CCCCCCCCNC(=O)CCOCCNc6cccc7c6C(=O)N(C6CCC(=O)NC6=O)C7=O)CC5)ccc4c3)c2c1 (stereo not shown) [IA7835, N-[9-[4-[6-[2-[(6-cyano-4-quinolyl)amino]ethyl]naphthalene-2-carbonyl]piperazin-1-yl]-9-oxo-nonyl]-3-[2-[[2-(2,6-dioxo-3-piperidyl)-1,3-dioxo-isoindolin-4-yl]amino]ethoxy]propanamide] | 45% | 
N#Cc1ccc2nccc(NCCc3ccc4cc(C(=O)N5CCN(C(=O)CCNC(=O)CCOCCOCCOCCNc6cccc7c6C(=O)N(C6CCC(=O)NC6=O)C7=O)CC5)ccc4c3)c2c1 (stereo not shown) [IA7819, N-[3-[4-[6-[2-[(6-cyano-4-quinolyl)amino]ethyl]naphthalene-2-carbonyl]piperazin-1-yl]-3-oxo-propyl]-3-[2-[2-[2-[[2-(2,6-dioxo-3-piperidyl)-1,3-dioxo-isoindolin-4-yl]amino]ethoxy]ethoxy]ethoxy]propanamide] | 66% | 
